Data reported in patent US20170298055A1, “sGC STIMULATORS” (IRONWOOD PHARMACEUTICALS, INC., priority 2014, published 2017).

Molecular target: T1, soluble guanylate cyclase (sGC) (Homo sapiens, UniProt Q02108+Q02153)
T1 construct: endogenously expressing soluble guanylate cyclase (sGC); endogenous in cells; host or cells: HEK293
T1 sequence (Q02153 1-619): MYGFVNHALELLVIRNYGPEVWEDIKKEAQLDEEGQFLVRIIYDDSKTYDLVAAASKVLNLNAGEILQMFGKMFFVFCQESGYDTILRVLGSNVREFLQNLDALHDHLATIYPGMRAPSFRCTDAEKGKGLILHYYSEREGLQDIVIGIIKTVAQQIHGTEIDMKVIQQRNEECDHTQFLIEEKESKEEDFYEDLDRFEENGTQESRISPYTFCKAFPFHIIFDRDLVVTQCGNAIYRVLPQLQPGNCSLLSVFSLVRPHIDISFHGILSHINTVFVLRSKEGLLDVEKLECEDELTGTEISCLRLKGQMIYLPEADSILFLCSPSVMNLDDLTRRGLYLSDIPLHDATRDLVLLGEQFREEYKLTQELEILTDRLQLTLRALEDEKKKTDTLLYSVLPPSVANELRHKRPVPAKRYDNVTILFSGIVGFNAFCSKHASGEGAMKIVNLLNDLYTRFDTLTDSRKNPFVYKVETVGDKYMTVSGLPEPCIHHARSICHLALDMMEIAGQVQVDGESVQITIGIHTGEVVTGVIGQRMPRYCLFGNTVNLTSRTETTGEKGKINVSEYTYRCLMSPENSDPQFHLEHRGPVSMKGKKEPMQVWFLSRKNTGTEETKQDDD
T1 sequence (Q02108 1-690): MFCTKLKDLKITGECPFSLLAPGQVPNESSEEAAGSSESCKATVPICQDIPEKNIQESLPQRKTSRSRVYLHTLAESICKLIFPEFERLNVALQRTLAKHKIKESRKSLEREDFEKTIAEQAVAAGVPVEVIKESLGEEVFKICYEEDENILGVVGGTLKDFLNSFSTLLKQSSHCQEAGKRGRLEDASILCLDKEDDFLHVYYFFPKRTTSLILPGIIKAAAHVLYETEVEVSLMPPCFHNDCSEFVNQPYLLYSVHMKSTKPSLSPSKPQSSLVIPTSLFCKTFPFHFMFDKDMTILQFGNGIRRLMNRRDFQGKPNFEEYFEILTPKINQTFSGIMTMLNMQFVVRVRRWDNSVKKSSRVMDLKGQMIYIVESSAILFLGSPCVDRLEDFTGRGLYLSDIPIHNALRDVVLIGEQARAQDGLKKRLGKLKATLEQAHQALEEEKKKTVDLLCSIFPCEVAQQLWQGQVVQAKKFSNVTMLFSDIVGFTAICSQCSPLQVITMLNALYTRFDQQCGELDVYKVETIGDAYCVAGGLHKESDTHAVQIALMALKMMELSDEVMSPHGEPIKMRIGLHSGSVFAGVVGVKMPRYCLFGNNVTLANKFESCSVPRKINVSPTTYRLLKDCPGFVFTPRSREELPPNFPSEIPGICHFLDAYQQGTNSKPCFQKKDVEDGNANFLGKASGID
Assay: sGC-HEK-cGMP assay, LC/MS detection, with SNP incubation (Example 2A)
Type: cell-based
Settings: HEK293 cells, in the presence of 10 μM SNP; top of concentration-response curve not fitted to 100%; read-out: sGC_HEK_LCMS uEC50 (nM) Binned (unconstrained)
Experimental: Human embryonic kidney cells (HEK293), endogenously expressing soluble guanylate cyclase (sGC), were used to evaluate the activity of test compounds. Compounds stimulating the sGC receptor should cause an increase in the intracellular concentration of cGMP. HEK 293 cells were seeded in Dulbecco's Modification of Eagle's Medium supplemented with fetal bovine serum (10% final) and L-glutamine (2 mM final) in a 200 μL volume at a density of 1×10^5 cells/well in a poly-D-lysine coated 96 well flat bottom plate and grown overnight at 37° C. Medium was aspirated and cells were washed with 1× Hank's Buffered Saline Salt Solution (200 μL). Cells were then incubated for 15 minutes at 37° C. with 0.5 mM 3-isobutyl-1-methylxanthine (200 μL). Test article and sodium nitroprusside were then added to the assay mixture (2 μL each) and incubated at 37° C. for 10 minutes. After the 10 minute incubation, the assay mixture was aspirated and 0.1M HCl (200 μL) was added to the cells. The plate was incubated at 4° C. for 30 minutes in the 0.1M HCl to stop the reaction and lysed the cells. The plates were then centrifuged at 1,200 g for 5 minutes at room temperature. Supernatants were collected and transferred to a new flat bottom 96 well plate for analysis. Vehicle controls were carried out using DMSO (1%). A known sGC stimulator, BAY 41-2272, was used as the positive control. Samples were diluted with an equal volume of 1 M Ammonium Acetate (pH 7) to neutralize samples for better chromatography. A 2× cGMP standard curve was prepared in 0.1 M HCl and then diluted with an equal volume of 1 M Ammonium Acetate, with the following final concentrations in nM: 1024, 512, 256, 128, 64, 32, 16, 8, 4, 2, 1. cGMP concentrations were determined from each sample using the LC/MS conditions (Table 2 below) and calculated standard curve. EC50 values were calculated from concentration-response curves generated with GraphPad Prism Software.

Molecule `CN(C)CCOc1nc(-c2cc(-c3ccon3)n(Cc3ccccc3F)n2)ncc1F` [Compound I-2] has an EC50 of 100 to 1000 nM.
In the case of `OCCOc1nc(-c2cc(-c3ccon3)n(Cc3ccccc3F)n2)ncc1F` [Compound I-1], the EC50 is reported as 100 to 1000 nM.
